One compound from ChEMBL document CHEMBL1130703, “The use of neamine as a molecular template: inactivation of bacterial antibiotic resistance enzyme aminoglycoside 3'-phosphotransferase type IIa” (Bioorg Med Chem Lett, 1998) can be followed below.

The nature of assay [1]: Ratio of kinetic catalyst/Km was determined.
The nature of assay [2]: Kinetic catalyst(Kcat) was determined by Cyanylated APH(3')-IIa method.
The nature of assay [3]: Michaelis constant was determined by native APH(3')-IIa method.
The nature of assay [4]: Kinetic constant(Kcat) was determined by native APH(3')-IIa method.
Assay [5] is described as follows: Km was determined by Cyanylated APH(3')-IIa method.

For orientation: Km means the substrate concentration at which the rate is half of its maximum.

Turning to `NC[C@H]1O[C@H](O[C@H]2[C@H](O)[C@@H](O)[C@H](N)C[C@@H]2N)[C@H](N)[C@@H](O)[C@@H]1O`, the Ratio was determined as 2.4e+07 M⁻¹ s⁻¹ in assay [1] and 1.3e+06 M⁻¹ s⁻¹ in assay [2]. Also, the k cat stood at 9.93 s⁻¹ in assay [2] and 29 s⁻¹ in assay [4]. In addition, the Km in assay [3] stood at 1.2 µM; in assay [5] it was 7.9 µM.
